According to US20250304623A1, “PEPTIDES FOR INTRACELLULAR DELIVERY” (UNIVERSIDADE DE SANTIAGO DE COMPOSTELA, priority 2022, published 2025):
*: point of attachment. NHNH2 = NN*

What was measured:
Format in all cases: cell-based
[1] = tested on: Hek293 cells expressing EGFP; test: EGFP-targeting siRNA delivery (GFP silencing vs siMOCK), Hek293
Experimental: (§1) To generate an EGFP expressing HeLa cell line, HeLa cells were transfected with EGFP pDNA (pEGFP-C1, Clontech) and stable transfectants were selected with 400 μg/mL of G-418 (Millipore). Green clones were selected by epifluorescence microscopy and tested for EGFP expression stability through several passages. […] All other EGFP-expressing cell lines were obtained in a similar way from parent non-EGFP-expressing cell lines.
(§2) Cells expressing EGFP were seeded in a 96 well plate the day before the experiment at a concentration of 50,000 cell/mL (100 μL/w) in DMEM+10% FBS+1% Gln-Abt. For robotic library screening, the delivery of an EGFP-targeting siRNA (EGFP: enhanced green fluorescent protein, Ambion® Silencer® GFP Positive Control siRNA (siGFP) (AM4626)) in six different cell lines expressing EGFP was performed. […] The mixture was shaken for 30 min at room temperature (rt) before the addition to the cells. The cell medium was aspirated, and cells were washed twice with PBS. Finally, 50 μL of the solution of siRNA/amphiphile complexes were added to the cells and incubated for 4 h. After transfection, the medium was replaced by 100 μL of fresh DMEM supplemented with 10% FBS. The fluorescence knockdown was quantified after 72 h in a plate reader, by comparison with cells transfected with a non-targeting siRNA control (siMOCK, Silencer™ Negative Control No. 1 siRNA (siMOCK) (AM4611)). EGFP knockdown was compared with Lipofectamine® RNAiMAX silencing efficiency (30-60% depending on cell line, defined with a numeric value in the below tables). All experiments were done in triplicate.
(§3) Tables 1-7: RLuc (pDNA) or EGFP (mRNA) expression levels were normalized to Lipofectamine reagents (value=1) and expressed as fold-times signal increase. In the case of siRNA, the siRNA treated cells fluorescence was compared with siMOCK control fluorescence, while Cas9-RNP mediated knockout was measured against the fluorescence of untreated cells. In both siRNA and Cas9-RNP, values are expressed as % fluorescence reduction. Amphiphile concentration was 5 μM in all cases. All experiments were performed in triplicate.
(§4) Tables 20-25 show the mean (triplicates) percentage of GFP-silencing, accounted by fluorescence intensity decrease relative to a non-targeting siRNA (siMOCK) control, measured after the transfection of siRNA by different amphiphiles at different concentrations in a variety of cell lines. Background values, accounted by untreated control cells, were subtracted for processing.

[2] = tested on: A549 cells expressing EGFP; test: EGFP-targeting siRNA delivery (GFP silencing vs siMOCK), A549; conditions: for siRNA % fluorescence reduction vs siMOCK: A549, amphiphile 5 μM, hydrophobic tail; for percentage of GFP-silencing relative to siMOCK: A549 cells
Experimental: as §1, §2, §3, §4

[3] = tested on: A549 cells; test: RLuc pDNA delivery, robotic library screening, A549
Method in brief: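 A549 cells in DMEM+10% FBS were washed twice with PBS and exposed for 4 h to amphiphile/RLuc pDNA complexes prepared from DMSO stocks diluted in DMEM. After medium replacement and 72 hours, cells in HBSS were incubated at 37° C. for 30 minutes, basal then total luminescence measured after 5 μM coelenterazine h; background from untransfected cells was subtracted.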

| Substance | percentage of GFP-silencing relative to siMOCK ([1]; Dodecanal, 5 μM) | percentage of GFP-silencing relative to siMOCK ([1]; Dodecanal, 10 μM) | percentage of GFP-silencing relative to siMOCK ([1]; Dodecanal, 15 μM) | percentage of GFP-silencing relative to siMOCK ([1]; Myristoleyl, 10 μM) | percentage of GFP-silencing relative to siMOCK ([1]; Myristoleyl, 15 μM) | percentage of GFP-silencing relative to siMOCK ([1]; Oleyl, 10 μM) | percentage of GFP-silencing relative to siMOCK ([1]; Oleyl, 15 μM) | percentage of GFP-silencing relative to siMOCK ([1]; Palmitoleyl, 5 μM) | percentage of GFP-silencing relative to siMOCK ([1]; Petroselinyl, 5 μM) | percentage of GFP-silencing relative to siMOCK ([1]; Petroselinyl, 10 μM) | percentage of GFP-silencing relative to siMOCK ([1]; Petroselinyl, 15 μM) | percentage of GFP-silencing relative to siMOCK ([2]; Dodecanal, 10 μM) | percentage of GFP-silencing relative to siMOCK ([2]; Dodecanal, 15 μM) | percentage of GFP-silencing relative to siMOCK ([2]; Myristoleyl, 10 μM) | percentage of GFP-silencing relative to siMOCK ([2]; Myristoleyl, 15 μM) | percentage of GFP-silencing relative to siMOCK ([2]; Oleyl, 10 μM) | percentage of GFP-silencing relative to siMOCK ([2]; Oleyl, 15 μM) | mean luminescent intensity (RLuc pDNA) ([3]; Petroselinyl, 15 μM) | mean luminescent intensity (RLuc pDNA) ([3]; Oleyl, 10 μM) | mean luminescent intensity (RLuc pDNA) ([3]; Oleyl, 15 μM) | further results |
| --- | --- | --- | --- | --- | --- | --- | --- | --- | --- | --- | --- | --- | --- | --- | --- | --- | --- | --- | --- | --- | --- |
| Ac-RRHK*RLK*RRLK*RL-NH2 (Ac-RRHK(NHNH2)RLK(NHNH2)RRLK(NHNH2)RL-NH2; not fully specified; printed as Ac-RRHK*RLK*RRLK*RL-NH2; also: K*4,K*7,K*11: native or modified lysine (ε-amide to a linker)) [13(Leu-His)] | 43% | 18% | 57% | 37% | 9% | 62% | 21% | 26% | 43% | 43% | 33% | 10% | 55% | 10% | 14% | 20% | 17% | 2865 RLU |  |  | percentage of GFP-silencing relative to siMOCK ([1]; Myristoleyl, 5 μM): 41%; siRNA % fluorescence reduction vs siMOCK [2]: 76%; percentage of GFP-silencing relative to siMOCK ([2]; Oleyl, 5 μM): 29%; percentage of GFP-silencing relative to siMOCK ([2]; Palmitoleyl, 10 μM): 54%; percentage of GFP-silencing relative to siMOCK ([2]; Palmitoleyl, 15 μM): 50%; percentage of GFP-silencing relative to siMOCK ([2]; Petroselinyl, 10 μM): 38%; percentage of GFP-silencing relative to siMOCK ([2]; Petroselinyl, 15 μM): 76%; mean luminescent intensity (RLuc pDNA) ([3]; Oleyl, 5 μM): 17058 RLU |
| Ac-RRLK*RLK*RRLK*RL-NH2 [Peptide 13.3] | 52% | 44% | 48% |  | 25% | 2% |  | 42% | 18% | 0% | 20% | 54% | 46% | 25% | 28% | 14% | 4% | 2205 RLU | 1248 RLU | 1919 RLU | siRNA % fluorescence reduction vs siMOCK ([2]; dodecanal hydrophobic tail): 58%; siRNA % fluorescence reduction vs siMOCK ([2]; myristoleyl hydrophobic tail): 57%; siRNA % fluorescence reduction vs siMOCK ([2]; palmitoleyl hydrophobic tail): 60%; percentage of GFP-silencing relative to siMOCK ([2]; Dodecanal, 5 μM): 59%; percentage of GFP-silencing relative to siMOCK ([2]; Myristoleyl, 5 μM): 57%; percentage of GFP-silencing relative to siMOCK ([2]; Palmitoleyl, 5 μM): 60%; percentage of GFP-silencing relative to siMOCK ([2]; Palmitoleyl, 10 μM): 37%; percentage of GFP-silencing relative to siMOCK ([2]; Palmitoleyl, 15 μM): 29%; percentage of GFP-silencing relative to siMOCK ([2]; Petroselinyl, 5 μM): 31%; percentage of GFP-silencing relative to siMOCK ([2]; Petroselinyl, 10 μM): 53%; percentage of GFP-silencing relative to siMOCK ([2]; Petroselinyl, 15 μM): 59%; mean luminescent intensity (RLuc pDNA) ([3]; Dodecanal, 10 μM): 964 RLU; mean luminescent intensity (RLuc pDNA) ([3]; Dodecanal, 15 μM): 1174 RLU; mean luminescent intensity (RLuc pDNA) ([3]; Myristoleyl, 10 μM): 2097 RLU; mean luminescent intensity (RLuc pDNA) ([3]; Palmitoleyl, 10 μM): 2647 RLU; mean luminescent intensity (RLuc pDNA) ([3]; Palmitoleyl, 15 μM): 2262 RLU |
| Ac-RRLK*RLLRRLK*RL-NH2 (Ac-RRLK(NHNH2)RLLRRLK(NHNH2)RL-NH2; not fully specified; printed as Ac-RRLK*RLLRRLK*RL-NH2; also: K*4,K*11: native or modified lysine (ε-amide to a linker)) [Peptide 13.2] |  |  |  |  |  | −7% | 17% |  |  |  |  |  |  |  |  | −2% | −21% |  | 1152 RLU | 1367 RLU | percentage of GFP-silencing relative to siMOCK ([2]; Oleyl, 5 μM): 19%; mean luminescent intensity (RLuc pDNA) ([3]; Oleyl, 5 μM): 2368 RLU |
| Ac-RRLK*RLLRRLK*RLK*RRL-NH2 (Ac-RRLK(NHNH2)RLLRRLK(NHNH2)RLK(NHNH2)RRL-NH2; not fully specified; printed as Ac-RRLK*RLLRRLK*RLK*RRL-NH2; also: K*4,K*11,K*14: native or modified lysine (ε-amide to a linker)) [Peptide 17.3] |  |  |  | 48% |  |  | 25% |  | 9% |  | 52% | 4% |  | 8% | 6% |  |  | 2614 RLU | 1201 RLU | 1552 RLU | percentage of GFP-silencing relative to siMOCK ([1]; Palmitoleyl, 10 μM): 37%; percentage of GFP-silencing relative to siMOCK ([2]; Dodecanal, 5 μM): 25%; percentage of GFP-silencing relative to siMOCK ([2]; Myristoleyl, 5 μM): 24%; mean luminescent intensity (RLuc pDNA) ([3]; Dodecanal, 10 μM): 1381 RLU; mean luminescent intensity (RLuc pDNA) ([3]; Dodecanal, 15 μM): 1660 RLU; mean luminescent intensity (RLuc pDNA) ([3]; Myristoleyl, 10 μM): 1545 RLU; mean luminescent intensity (RLuc pDNA) ([3]; Myristoleyl, 15 μM): 2581 RLU; mean luminescent intensity (RLuc pDNA) ([3]; Palmitoleyl, 5 μM): 2518 RLU; mean luminescent intensity (RLuc pDNA) ([3]; Palmitoleyl, 15 μM): 2585 RLU |
